Experimental data: patent publication US7517517B2 (Janssen Pharmaceutica N.V., priority 2002, dated 2009)
Marks after values point to notes of the source that are not given here.

Key:
rat mGlu2 receptor = molecular target: T1, rat mGlu2 receptor (Rattus norvegicus, UniProt P31421); test: [3H]Compound A binding to membranes from CHO-dhfr− cells expressing the rat mGlu2 receptor; conditions: 20 nM [3H]Compound A, 40 μg membranes
T1 construct: host or cells: CHO-dhfr- cells
Method: (§1) Confluent cells were washed in ice-cold phosphate-buffered saline and stored at −20° C. until membrane preparation. After thawing, cells were suspended in 50 mM Tris-HCl, pH 7.4 and collected through centrifugation for 10 min at 23,500 g at 4° C. The cells were lysed in 10 mM hypotonic Tris-HCl, pH 7.4. After recentrifugation for 20 min at 30,000 g at 4° C., the pellet was homogenized with an Ultra Turrax homogenizer in 50 mM Tris-HCl, pH 7.4. Protein concentrations were measured by the Bio-Rad protein assay using bovine serum albumin as standard.
(§2) After thawing, the membranes were homogenized using an Ultra Turrax homogenizer and suspended in ice-cold binding buffer containing 50 mM Tris-HCl (pH 7.4), 1.2 mM MgCl2, 2 mM CaCl2. For [^3H]Compound A binding, 20 to 160 μg membrane protein and a final concentration of 20 nM [^3H]Compound A was used. As indicated in the results section, different blancs were used to define non-specific binding. Incubation time and temperature as well as filtration were as described for rat mGlu1a receptor CHO-dhfr^− membranes. Expression of rat mGlu2, -3, -5 and mGlu6 receptors was confirmed by specific binding of [^3H]LY341495 (mGlu2, -3 and -6) or [^3H]MPEP (mGlu5). For [^3H]LY341495 binding, 1 nM (mGlu2 and mGlu3) or 10 nM (mGlu6) [^3H]LY341495 was used. […] Assay mixtures were incubated for 30 min (mGlu2 and mGlu3) or 60 min (mGlu6) at 4° C. […]

rat mGlu1a receptor = molecular target: T2, rat mGlu1a receptor (Rattus norvegicus, UniProt P23385); test: [3H]Compound A binding to rat mGlu1a receptor CHO-dhfr− membranes (saturation, kinetics, inhibition); conditions: for observed association rate constant (kob): 2.5 nM radioligand
T2 construct: host or cells: CHO-dhfr- cells

rat mGlu5 receptor = molecular target: T3, rat mGlu5 receptor (Rattus norvegicus, UniProt P31424); test: [3H]Compound A binding to membranes from CHO-dhfr− cells expressing the rat mGlu5 receptor; conditions: 20 nM [3H]Compound A, 40 μg membranes; Compound 135 as blanc
T3 construct: host or cells: CHO-dhfr- cells
Method: as §1, §2

mGlu1 receptor = mGlu1 receptor (Rattus norvegicus, UniProt P23385); test: [3H]Compound A binding to rat brain membranes (cortex, hippocampus, striatum, cerebellum)
Method: Tissue preparation. Male Wistar rats (˜200 g) were sacrificed by decapitation. The brains were rapidly removed and cortex, hippocampus, striatum and cerebellum were immediately dissected. The fresh tissue was homogenized with an Ultra Turrax in 20 volumes of 50 mM Tris-HCl, pH 7.4 and tissue was centrifuged at 23,500 g for 10 min. After homogenisation using a DUAL homogeniser, membranes were washed twice by centrifugation at 23,500 g for 10 min. The final pellet was suspended in 10 volumes of 50 mM Tris-HCl, pH 7.4 and frozen at −80° C.
In vitro binding assay. After thawing, membranes from rat cortex, cerebellum, striatum and hippocampus were rehomogenized using a DUAL and suspended in ice-cold binding buffer containing 50 mM Tris-HCl, 1.2 mM MgCl2, 2 mM CaCl2, pH 7.4. The binding assay was carried out in a total volume of 0.5 ml containing 2.5 nM [^3H]Compound A and a membrane aliquot corresponding to 40 μg for cerebellar membranes, 60 μg for hippocampal membranes, 80 μg for striatal membranes or 150 μg for cortical membranes. […] After incubation for 30 min at 4° C., the labelled membranes were washed and harvested by rapid vacuum filtration over Whatman GF/C glass-fibre filters using a 40-well filtration manifold and radioactivity collected on the filters was counted as above.
Data analysis was performed using the GraphPad Prism program (GraphPad Prism Software, Inc., San Diego, Calif.). Saturation binding experiments were analysed using a non-linear regression analysis. Inhibition curves were fitted using non-linear regression analysis fitting the one-site competition equation: Y=Bottom+((Top−Bottom)/1+10^X-LogIC50). Ki values were calculated using the Cheng-Prusoff equation: Ki=IC50/[1+([C]/KD)] where C is the concentration of radioligand and KD is the dissociation constant of the radioligand (Cheng and Prusoff, Biochem. Pharmacol. 22, 3099-3108, 1973). The observed on (kob) and off (koff) rate were calculated from association-dissociation curves using the one-phase-exponential association and decay equations in the Prism program, respectively. kon was calculated by subtracting koff from kob and dividing by the radioligand concentration. The two-tailed Student's t-test was used for statistical evaluation of the binding data: * p<0.05, ** p<0.01 and *** p<0.001. The Dunnett's t-test following a 2-way analysis of variance (with as factors compound concentration and experiment) were used to analyse the data from the IP experiments.

[1] = [3H]Compound A saturation binding in presence of BAY 36-7620 (100 nM), mean ± SD, 3 experiments
[2] = [3H]Compound A saturation binding in presence of CPCCOEt (30 μM), mean ± SD, 3 experiments
[3] = [3H]Compound A saturation binding in presence of NPS 2390 (10 nM), mean ± SD, 3 experiments
[4] = [3H]Compound A saturation binding, control (absence of antagonist), mean ± SD, 3 experiments
[5] = membranes from rat cerebellum, mean ± SD, 3 experiments
[6] = membranes from rat cortex, mean ± SD, 3 experiments
[7] = membranes from rat hippocampus, mean ± SD, 3 experiments
[8] = membranes from rat striatum, mean ± SD, 3 experiments

T2 sequence (P23385 19-1199): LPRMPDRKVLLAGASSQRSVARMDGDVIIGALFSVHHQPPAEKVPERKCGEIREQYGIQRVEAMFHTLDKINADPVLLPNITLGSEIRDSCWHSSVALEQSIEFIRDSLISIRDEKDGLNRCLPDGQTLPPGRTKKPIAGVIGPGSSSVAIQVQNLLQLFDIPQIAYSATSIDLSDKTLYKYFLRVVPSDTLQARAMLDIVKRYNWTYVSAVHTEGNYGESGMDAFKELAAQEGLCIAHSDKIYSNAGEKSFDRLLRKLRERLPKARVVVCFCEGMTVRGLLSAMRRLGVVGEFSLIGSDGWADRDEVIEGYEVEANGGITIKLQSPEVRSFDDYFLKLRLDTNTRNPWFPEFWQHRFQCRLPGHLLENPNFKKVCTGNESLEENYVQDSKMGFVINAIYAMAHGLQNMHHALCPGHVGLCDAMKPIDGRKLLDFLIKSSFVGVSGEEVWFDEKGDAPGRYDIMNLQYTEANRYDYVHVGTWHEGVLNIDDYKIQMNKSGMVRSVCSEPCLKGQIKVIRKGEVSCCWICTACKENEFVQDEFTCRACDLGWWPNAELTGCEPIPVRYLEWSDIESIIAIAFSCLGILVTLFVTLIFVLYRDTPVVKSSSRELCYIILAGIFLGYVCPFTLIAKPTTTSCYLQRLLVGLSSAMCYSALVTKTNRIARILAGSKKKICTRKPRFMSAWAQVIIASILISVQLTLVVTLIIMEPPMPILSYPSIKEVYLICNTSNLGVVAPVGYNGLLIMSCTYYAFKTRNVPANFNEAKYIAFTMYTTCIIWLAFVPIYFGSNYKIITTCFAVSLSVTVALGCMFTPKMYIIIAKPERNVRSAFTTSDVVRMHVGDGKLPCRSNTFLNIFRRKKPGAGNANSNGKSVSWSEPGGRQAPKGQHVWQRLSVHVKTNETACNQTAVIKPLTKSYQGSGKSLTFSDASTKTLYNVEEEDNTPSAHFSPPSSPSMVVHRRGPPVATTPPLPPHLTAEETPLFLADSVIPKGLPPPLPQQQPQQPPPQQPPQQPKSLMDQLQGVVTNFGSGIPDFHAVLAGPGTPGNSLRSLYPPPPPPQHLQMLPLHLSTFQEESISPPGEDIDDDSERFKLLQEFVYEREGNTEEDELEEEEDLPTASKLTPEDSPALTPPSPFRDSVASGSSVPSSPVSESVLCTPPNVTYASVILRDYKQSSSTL
T1 sequence (P31421 19-872): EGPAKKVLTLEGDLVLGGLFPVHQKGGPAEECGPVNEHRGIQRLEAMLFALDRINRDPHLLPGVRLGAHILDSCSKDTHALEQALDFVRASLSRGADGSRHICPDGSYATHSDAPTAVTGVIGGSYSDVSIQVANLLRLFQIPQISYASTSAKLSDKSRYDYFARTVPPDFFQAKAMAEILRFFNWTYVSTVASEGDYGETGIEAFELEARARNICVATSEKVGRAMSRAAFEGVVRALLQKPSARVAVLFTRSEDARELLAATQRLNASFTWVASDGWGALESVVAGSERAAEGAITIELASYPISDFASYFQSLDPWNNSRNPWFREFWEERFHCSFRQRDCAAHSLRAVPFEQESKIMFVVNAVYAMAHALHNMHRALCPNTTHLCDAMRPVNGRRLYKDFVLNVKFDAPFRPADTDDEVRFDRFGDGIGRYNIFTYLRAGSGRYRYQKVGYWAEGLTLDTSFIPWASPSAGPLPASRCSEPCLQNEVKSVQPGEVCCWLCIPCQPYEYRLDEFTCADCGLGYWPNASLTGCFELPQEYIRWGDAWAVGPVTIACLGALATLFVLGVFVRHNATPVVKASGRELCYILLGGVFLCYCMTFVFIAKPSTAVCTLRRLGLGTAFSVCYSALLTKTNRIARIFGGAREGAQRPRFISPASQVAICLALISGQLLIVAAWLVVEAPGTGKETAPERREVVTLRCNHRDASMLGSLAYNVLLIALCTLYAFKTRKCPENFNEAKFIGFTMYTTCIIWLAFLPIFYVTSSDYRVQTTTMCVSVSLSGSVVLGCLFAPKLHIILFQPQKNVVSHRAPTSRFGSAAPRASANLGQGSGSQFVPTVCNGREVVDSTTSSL
T3 sequence (P31424 21-1203): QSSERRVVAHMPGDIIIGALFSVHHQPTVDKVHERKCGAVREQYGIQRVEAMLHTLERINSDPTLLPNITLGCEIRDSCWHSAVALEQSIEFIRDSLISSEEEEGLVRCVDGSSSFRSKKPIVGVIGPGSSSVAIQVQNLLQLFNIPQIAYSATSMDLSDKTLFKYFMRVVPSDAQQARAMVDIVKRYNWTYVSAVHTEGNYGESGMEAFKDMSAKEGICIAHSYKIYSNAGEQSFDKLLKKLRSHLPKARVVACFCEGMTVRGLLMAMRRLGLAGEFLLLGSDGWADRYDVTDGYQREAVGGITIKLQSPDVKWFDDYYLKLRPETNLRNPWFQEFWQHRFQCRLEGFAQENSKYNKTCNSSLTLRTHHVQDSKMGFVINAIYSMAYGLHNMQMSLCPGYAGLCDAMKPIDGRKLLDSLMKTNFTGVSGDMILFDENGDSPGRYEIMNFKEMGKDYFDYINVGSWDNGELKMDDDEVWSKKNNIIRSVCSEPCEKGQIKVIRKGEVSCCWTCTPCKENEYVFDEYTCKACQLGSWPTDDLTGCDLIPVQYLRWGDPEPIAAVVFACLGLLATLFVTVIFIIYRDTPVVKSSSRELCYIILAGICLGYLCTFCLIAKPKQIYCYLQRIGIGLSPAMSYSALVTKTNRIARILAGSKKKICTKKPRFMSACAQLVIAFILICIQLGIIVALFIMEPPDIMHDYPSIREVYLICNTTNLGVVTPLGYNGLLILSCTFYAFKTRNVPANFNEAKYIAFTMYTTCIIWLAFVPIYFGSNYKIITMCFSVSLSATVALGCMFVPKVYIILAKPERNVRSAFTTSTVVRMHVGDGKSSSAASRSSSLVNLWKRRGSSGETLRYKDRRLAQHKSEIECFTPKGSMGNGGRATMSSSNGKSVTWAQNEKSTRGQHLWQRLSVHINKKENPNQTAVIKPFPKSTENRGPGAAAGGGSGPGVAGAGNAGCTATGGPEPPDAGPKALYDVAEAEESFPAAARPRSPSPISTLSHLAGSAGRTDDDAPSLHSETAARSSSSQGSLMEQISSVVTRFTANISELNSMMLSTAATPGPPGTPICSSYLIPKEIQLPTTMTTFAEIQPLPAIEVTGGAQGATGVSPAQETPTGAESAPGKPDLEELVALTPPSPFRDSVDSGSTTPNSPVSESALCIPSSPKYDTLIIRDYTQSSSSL

[3H]c1ccc(CC(=O)c2ccc3nc4c(cc3c2)CCCO4)cc1 [[^3H]Compound A]
SB (fmoles/mg protein), mGlu2 (rat mGlu2 receptor; Compound 135 as blanc): 0 fmoles/mg protein
SB (fmoles/mg protein), mGlu2 (rat mGlu2 receptor; various blancs: 1 mM glutamate): 34^a fmoles/mg protein
melting point: 195 °C
SB (fmoles/mg protein), mGlu1 (rat mGlu1a receptor; 10 nM [3H]Compound A, 20 μg membranes, Compound 135 as blanc, mean ± SD of 3 experiments): 6057 fmoles/mg protein
specific binding as % of the total binding (rat mGlu1a receptor; 20 μg protein per assay, non-specific binding with 1 μM compound 135): ~92%
koff (rat mGlu1a receptor; 4° C.): 0.00208 s⁻¹
specific binding after 2 min incubation as % of the quantity bound at equilibrium (rat mGlu1a receptor; 4° C.): about 70%
time to complete displacement after addition of excess compound 135 (rat mGlu1a receptor; 4° C.): approximately 45 min
observed association rate constant (kob) (rat mGlu1a receptor; 4° C.): 0.6285 min⁻¹
kon (rat mGlu1a receptor; 4° C., read-out: kon (kob−koff/radioligand concentration) (converted)): 1.68e+06 M⁻¹ s⁻¹
time to dissociation after addition of 1 μM compound 135 (rat mGlu1a receptor; 25° C.): ≤ 2 min
observed association rate constant (kob) (rat mGlu1a receptor; 25° C.): 2.571 min⁻¹
observed association rate constant (kob) (rat mGlu1a receptor; 37° C.): 1.523 min⁻¹
Bmax (rat mGlu1a receptor; [1]): 5872 ± 1018 fmoles/mg protein
Kd (rat mGlu1a receptor; [1]): 5.21 ± 1.2 nM
Bmax (rat mGlu1a receptor; [2]): 7009 ± 1231 fmoles/mg protein
Kd (rat mGlu1a receptor; [2]): 3.17 ± 0.9 nM
Bmax (rat mGlu1a receptor; [3]): 6887 ± 2804 fmoles/mg protein
Kd (rat mGlu1a receptor; [3]): 2.9 ± 0.2 nM
Bmax (rat mGlu1a receptor; [4]): 7284 ± 970 fmoles/mg protein
Kd (rat mGlu1a receptor; [4]): 0.73 ± 0.09 nM
incubation time to maximal binding (rat mGlu1a receptor; each incubation temperature (4, 25, 37° C.)): ≤ 5 min
decrease of specific binding at pH 6 (rat mGlu1a receptor; pH 6): 22%
more binding sites labelled than [3H]quisqualate (rat mGlu1a receptor; rat mGlu1a receptor CHO-dhfr− membranes): ~40%
Kd (rat mGlu1a receptor; saturation, 30 min incubation, n=3): 0.9 ± 0.14 nM
SB (fmoles/mg protein), mGlu5 (rat mGlu5 receptor): 38 fmoles/mg protein
Kd (mGlu1 receptor; all structures (cortex, hippocampus, striatum, cerebellum)): ~1 nM
non-specific binding compared to total binding (mGlu1 receptor; cerebellum): 10%
non-specific binding compared to total binding (mGlu1 receptor; cortex): 25%
number of sites labelled as % of the number found in the cerebellum (mGlu1 receptor; cortex): 11%
non-specific binding compared to total binding (mGlu1 receptor; hippocampus): 30%
number of sites labelled as % of the number found in the cerebellum (mGlu1 receptor; hippocampus): about 16%
Bmax (mGlu1 receptor; [5]): 4302 ± 2042 fmoles/mg protein
Kd (mGlu1 receptor; [5]): 0.99 ± 0.36 nM
Bmax (mGlu1 receptor; [6]): 471 ± 68 fmoles/mg protein
Kd (mGlu1 receptor; [6]): 1.04 ± 0.4 nM
Bmax (mGlu1 receptor; [7]): 688 ± 125 fmoles/mg protein
Kd (mGlu1 receptor; [7]): 0.72 ± 0.22 nM
Bmax (mGlu1 receptor; [8]): 741 ± 48 fmoles/mg protein
Kd (mGlu1 receptor; [8]): 0.84 ± 0.23 nM
non-specific binding compared to total binding (mGlu1 receptor; striatum): 25%
number of sites labelled as % of the number found in the cerebellum (mGlu1 receptor; striatum): about 16%
